Source: publication PMC5772355 (Scientific Reports, 2018)

How the values were obtained:
[1] = molecular target: T1, xCT (SLC7A11), system xc− (Mus musculus, UniProt Q9WTR6); assay: inhibition of L-[…]cystine uptake in xCT-overexpressing MEF; format: cell-based
T1 construct: coding region of murine xCT, stably overexpressed in MEF; with 4F2 heavy chain (SLC3A2)
T1 sequence (Q9WTR6 1-502): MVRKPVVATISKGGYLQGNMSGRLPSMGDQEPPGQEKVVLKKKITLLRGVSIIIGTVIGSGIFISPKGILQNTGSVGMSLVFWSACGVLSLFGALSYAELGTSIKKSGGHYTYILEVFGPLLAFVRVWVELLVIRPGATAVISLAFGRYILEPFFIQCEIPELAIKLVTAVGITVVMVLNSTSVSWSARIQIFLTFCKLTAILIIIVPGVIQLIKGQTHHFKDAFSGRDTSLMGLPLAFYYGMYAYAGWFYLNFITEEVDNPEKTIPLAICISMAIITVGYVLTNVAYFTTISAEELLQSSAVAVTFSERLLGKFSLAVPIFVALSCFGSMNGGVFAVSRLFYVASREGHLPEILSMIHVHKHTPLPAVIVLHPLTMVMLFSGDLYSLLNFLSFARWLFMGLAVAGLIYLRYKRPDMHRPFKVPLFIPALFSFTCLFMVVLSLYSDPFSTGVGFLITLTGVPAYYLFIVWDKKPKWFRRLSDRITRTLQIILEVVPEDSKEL
T1 sequence (P10852 1-526 partner): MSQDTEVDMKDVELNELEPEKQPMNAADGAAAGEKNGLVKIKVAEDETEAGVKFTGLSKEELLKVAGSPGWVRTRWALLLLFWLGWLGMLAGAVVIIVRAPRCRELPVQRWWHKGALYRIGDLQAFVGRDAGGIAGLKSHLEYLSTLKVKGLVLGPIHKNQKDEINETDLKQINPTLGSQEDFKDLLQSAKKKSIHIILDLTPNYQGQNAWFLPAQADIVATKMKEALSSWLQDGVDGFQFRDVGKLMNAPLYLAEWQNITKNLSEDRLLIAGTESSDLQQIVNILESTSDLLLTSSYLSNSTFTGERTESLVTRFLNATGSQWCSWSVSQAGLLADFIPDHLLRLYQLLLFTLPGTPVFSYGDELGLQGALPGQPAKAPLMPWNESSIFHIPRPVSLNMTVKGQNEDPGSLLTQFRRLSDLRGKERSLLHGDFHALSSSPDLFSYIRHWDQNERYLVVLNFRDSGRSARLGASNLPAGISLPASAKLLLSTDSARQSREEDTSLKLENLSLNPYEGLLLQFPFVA

[2] = molecular target: T1, xCT (SLC7A11), system xc−; assay: as above; format: cell-based; remark: listed apart in the source

| SMILES | inhibition at 100 µM [1] [%] | IC50 [2] [µM] |
| --- | --- | --- |
| N[C@@H](CCC(=O)O)C(=O)O [Glu, L-glutamate] | ~50 | – |
| N[C@@H](Cn1oc(=O)[nH]c1=O)C(=O)O [QA, quisqualic acid] | – | 15.4 |
| O=C(O)c1cc(/N=N/c2ccc(S(=O)(=O)Nc3ccccn3)cc2)ccc1O [SAS, sulfasalazine] | – | 26.1 |
| CCOc1ccccc1-n1c(C(C)N2CCN(C(=O)COc3ccc(Cl)cc3)CC2)nc2ccccc2c1=O (stereo not shown) [erastin] | – | 1.4 |
